# Data as given in patent publication US8426424B2, “Certain substituted amides, method of making, and method of use thereof” (CGI Pharmaceuticals, Inc., priority 2008, dated 2013).
compound,measurement,value
"Cc1c(NC(=O)c2cc3c(s2)C2CCC3C2)cccc1-c1cn(C)c(=O)c(Nc2ccc(C3C(=O)N(C)CCN3C)cc2)n1 (stereo not shown) [1q, N-(3-(6-(4-(1,4-Dimethyl-3-oxopiperazin-2-yl)phenylamino)-4-methyl-5-oxo-4,5-dihydropyrazin-2-yl)-2-methylphenyl)-4,5,6,7-tetrahydro-4,7-methanobenzo[b]thiophene-2-carboxamide]",melting point,178 to 179 °C
